Measured values as given in patent publication US10799496B2, “Naphthylenyl compounds for long-acting injectable compositions and related methods” (priority 2018, dated 2020).

Key:
[1] = Whole blood stability assay; type: in vitro ADME; conditions: prodrug 50 nM, fresh pooled human whole blood, 37 degrees C.; read-out: t1/2 at 37 degrees C. in human whole blood
Experimental: Naltrexone prodrug stability was assessed using freshly collected whole blood (within 24-hr collection) from pooled human (n=3) donors. The incubation mixtures were prepared by spiking the prodrugs into pre-warmed (37 degrees C.) fresh whole blood to a final concentration of 50 nM. After gentle mixing, aliquots of incubation mixtures were immediately transferred into four different 96-deep well plates. One plate was used for each time point. The plates were incubated at 37 degrees C. at a shaking speed of 100 rpm. At time points 15, 30, 60 and 120 minutes, the reaction was quenched by addition of a mixture of water and acetonitrile containing the internal standard (naltrexone-D3). Time point 0 minutes was prepared separately by spiking the prodrugs into a quenched whole blood to obtain a final concentration of 50 nM. All samples were vortexed at a low speed for 15 min and centrifuged at 3900 rpm for 15 min. Supernatants were transferred into 96-well plates for LC-MS/MS analysis to monitor the depletion of the prodrugs and the formation of naltrexone.
The amount of remaining prodrug and released naltrexone for each sample was quantitated against the calibration curves prepared with the whole blood. The human whole blood was purchased from BioreclamationIVT (Westbury, N.Y., USA). Naltrexone-D3 was purchased from CERILLIANT® (Round Rock, Tex., USA). […] Where multiple runs have been completed, average values are reported.

[2] = Pharmacokinetic evaluation of the release of naltrexone from Compound 2 in rats following a single intramuscular injection; type: in vivo, Sprague-Dawley rats; conditions: rat plasma
Experimental: Five male Sprague-Dawley rats were allowed to acclimate to the test facility for at least 2 days prior to study start. For dose administration of Compound 2, the rats were lightly anesthetized with isofluorane, the hind leg shaved and dosed intramuscularly with the formulation using a 21G needle. […] Serial whole blood samples were collected via sublingual route (˜150 μL) at 1, 8, and 24 hours post dose, and at 2, 4, 7, 10, 14, 17, 21, 24, 28, 35, 42, 49, 56, 63, 71, 78, 85, and 91 days post dose.
Blood samples were placed into K2EDTA blood collection tubes. After collection, blood samples were maintained chilled (on wet ice) and centrifuged (11,500 rpm for 2 minutes at 5 degrees C.) within 30 minutes to obtain plasma. Plasma was transferred into a single vial, 1.5 mL screw cap micro-centrifuge tube with inserts and stored at −80 degrees C. until analysis.
The formulation dosed was a crystalline suspension of Compound 2 (46 milligrams of Compound 2 dosed per animal), wherein the crystalline test article was characterized with a particle size distribution of Dv10=12.9 μm, Dv50=31.5 μm, and Dv90=63.1 μm (as measured via laser diffraction). The formulation was prepared the day before dosing. Details of the formulation dosed are described in Table D below.
Results of the above intramuscular rat study of Compound 2 are shown in Tables E and F. In particular, Table E reports the average blood plasma levels of naltrexone in rat (n=5) over 91 days following intramuscular administration.

SMILES: O=C(Cc1ccc2cc(CC(=O)Oc3ccc4c5c3O[C@H]3C(=O)CC[C@@]6(O)[C@@H](C4)N(CC4CC4)CC[C@]536)ccc2c1)Oc1ccc2c3c1O[C@H]1C(=O)CC[C@@]4(O)[C@@H](C2)N(CC2CC2)CC[C@]314 [Compound 2, bis((4R,4aS,7aR,12bS)-3-(cyclopropylmethyl)-4a-hydroxy-7-oxo-2,3,4,4a,5,6,7,7a-octahydro-1H-4,12-methanobenzofuro[3,2-e]isoquinolin-9-yl) 2,2′-(naphthalene-2,6-diyl)diacetate]
- half-life at 50 nM [1]: 20.9 min
- Compound 2 conc. ([2]; single i.m. dose of Compound 2, day 0.042 (1 hr), Rat 1): 0.223 ng/mL
- Compound 2 conc. ([2]; single i.m. dose of Compound 2, day 0.042 (1 hr), Rat 2): 0.112 ng/mL
- Compound 2 conc. ([2]; single i.m. dose of Compound 2, day 0.042 (1 hr), Rat 3): <0.1 ng/mL
- Compound 2 conc. ([2]; single i.m. dose of Compound 2, day 0.042 (1 hr), Rat 4): 0.131 ng/mL
- Compound 2 conc. ([2]; single i.m. dose of Compound 2, day 0.042 (1 hr), Rat 5): 0.113 ng/mL
- Compound 2 conc. ([2]; single i.m. dose of Compound 2, day 0.33 (8 hr), Rat 1): <0.1 ng/mL
- Compound 2 conc. ([2]; single i.m. dose of Compound 2, day 0.33 (8 hr), Rat 2): <0.1 ng/mL
- Compound 2 conc. ([2]; single i.m. dose of Compound 2, day 0.33 (8 hr), Rat 3): <0.1 ng/mL
- Compound 2 conc. ([2]; single i.m. dose of Compound 2, day 0.33 (8 hr), Rat 4): <0.1 ng/mL
- Compound 2 conc. ([2]; single i.m. dose of Compound 2, day 0.33 (8 hr), Rat 5): <0.1 ng/mL
- Compound 2 conc. ([2]; single i.m. dose of Compound 2, day 1, Rat 1): <0.1 ng/mL
- Compound 2 conc. ([2]; single i.m. dose of Compound 2, day 1, Rat 2): <0.1 ng/mL
- Compound 2 conc. ([2]; single i.m. dose of Compound 2, day 1, Rat 3): <0.1 ng/mL
- Compound 2 conc. ([2]; single i.m. dose of Compound 2, day 1, Rat 4): <0.1 ng/mL
- Compound 2 conc. ([2]; single i.m. dose of Compound 2, day 1, Rat 5): <0.1 ng/mL
- Compound 2 conc. ([2]; single i.m. dose of Compound 2, day 2, Rat 1): <0.1 ng/mL
- Compound 2 conc. ([2]; single i.m. dose of Compound 2, day 2, Rat 2): <0.1 ng/mL
- Compound 2 conc. ([2]; single i.m. dose of Compound 2, day 2, Rat 3): <0.1 ng/mL
- Compound 2 conc. ([2]; single i.m. dose of Compound 2, day 2, Rat 4): <0.1 ng/mL
- Compound 2 conc. ([2]; single i.m. dose of Compound 2, day 2, Rat 5): <0.1 ng/mL
- Compound 2 conc. ([2]; single i.m. dose of Compound 2, day 7, Rat 1): <0.1 ng/mL
- Compound 2 conc. ([2]; single i.m. dose of Compound 2, day 7, Rat 2): <0.1 ng/mL
- Compound 2 conc. ([2]; single i.m. dose of Compound 2, day 7, Rat 3): 0.175 ng/mL
- Compound 2 conc. ([2]; single i.m. dose of Compound 2, day 7, Rat 4): <0.1 ng/mL
- Compound 2 conc. ([2]; single i.m. dose of Compound 2, day 7, Rat 5): <0.1 ng/mL
- Compound 2 conc. ([2]; single i.m. dose of Compound 2, day 10, Rat 1): 0.111 ng/mL
- Compound 2 conc. ([2]; single i.m. dose of Compound 2, day 10, Rat 2): <0.1 ng/mL
- Compound 2 conc. ([2]; single i.m. dose of Compound 2, day 10, Rat 3): 0.104 ng/mL
- Compound 2 conc. ([2]; single i.m. dose of Compound 2, day 10, Rat 4): 0.119 ng/mL
- Compound 2 conc. ([2]; single i.m. dose of Compound 2, day 10, Rat 5): <0.1 ng/mL
- Compound 2 conc. ([2]; single i.m. dose of Compound 2, day 14, Rat 1): 0.119 ng/mL
- Compound 2 conc. ([2]; single i.m. dose of Compound 2, day 14, Rat 2): 0.135 ng/mL
- Compound 2 conc. ([2]; single i.m. dose of Compound 2, day 14, Rat 3): <0.1 ng/mL
- Compound 2 conc. ([2]; single i.m. dose of Compound 2, day 14, Rat 4): 0.144 ng/mL
- Compound 2 conc. ([2]; single i.m. dose of Compound 2, day 14, Rat 5): 0.136 ng/mL
- Compound 2 conc. ([2]; single i.m. dose of Compound 2, day 17, Rat 1): <0.1 ng/mL
- Compound 2 conc. ([2]; single i.m. dose of Compound 2, day 17, Rat 2): <0.1 ng/mL
- Compound 2 conc. ([2]; single i.m. dose of Compound 2, day 17, Rat 3): <0.1 ng/mL
- Compound 2 conc. ([2]; single i.m. dose of Compound 2, day 17, Rat 4): <0.1 ng/mL
- Compound 2 conc. ([2]; single i.m. dose of Compound 2, day 17, Rat 5): <0.1 ng/mL
- Compound 2 conc. ([2]; single i.m. dose of Compound 2, day 21, Rat 1): <0.1 ng/mL
- Compound 2 conc. ([2]; single i.m. dose of Compound 2, day 21, Rat 2): <0.1 ng/mL
- Compound 2 conc. ([2]; single i.m. dose of Compound 2, day 21, Rat 3): <0.1 ng/mL
- Compound 2 conc. ([2]; single i.m. dose of Compound 2, day 21, Rat 4): <0.1 ng/mL
- Compound 2 conc. ([2]; single i.m. dose of Compound 2, day 21, Rat 5): 3.25 ng/mL
- Compound 2 conc. ([2]; single i.m. dose of Compound 2, day 24, Rat 1): 0.198 ng/mL
- Compound 2 conc. ([2]; single i.m. dose of Compound 2, day 24, Rat 2): 0.177 ng/mL
- Compound 2 conc. ([2]; single i.m. dose of Compound 2, day 24, Rat 3): 0.217 ng/mL
- Compound 2 conc. ([2]; single i.m. dose of Compound 2, day 24, Rat 4): 0.170 ng/mL
- Compound 2 conc. ([2]; single i.m. dose of Compound 2, day 24, Rat 5): 0.280 ng/mL
